Measurements from patent US9169224B2, “Piperazinyl and piperidinyl ureas as modulators of fatty acid amide hydrolase” (Janssen Pharmaceutica NV, priority 2004, dated 2015).

These molecules were tested against FAAH (Homo sapiens (Human), UniProt O00519) (assay: Assay Method 1: FAAH assay, T84 cell homogenate, 3H-anandamide hydrolysis). Settings: 3H-AEA tracer 200 nM, 1 h at rt.
Format: biochemical
Description: T84 frozen pellets (contents of 1-4×15 cm culture dishes) were homogenized in 300 mL of FAAH assay buffer (125 mM Tris, 1 mM EDTA, 0.2% glycerol, 0.02% Triton X-100, 0.4 mM Hepes, pH 9). The assay mixture was prepared from 50 μL of the cell homogenate, 10 μL of the test compound, and 40 μL of anandamide [1-3H-ethanolamine] (^3H-AEA; Perkin-Elmer, 10.3 Ci/mmol), which was added last, for a final tracer concentration of 200 nM. The reaction mixture was incubated at rt for 1 hour (h). During the incubation, 96-well Multiscreen filter plates (catalog number MAFCNOB50; Millipore, Bedford, Mass., USA) were loaded with 25 μL of activated charcoal (Multiscreen column loader, catalog number MACL09625, Millipore) and washed once with 100 μL of MeOH. Also during the incubation, 96-well DYNEX MicroLite plates (catalog number NL510410) were loaded with 100 μL of MicroScint40 (catalog number 6013641, Packard Bioscience, Meriden, Conn., USA). After the 1 h incubation, 60 μL of the reaction mixture were transferred to the charcoal plates, which were then assembled on top of the DYNEX plates using Centrifuge Alignment Frames (catalog number MACF09604, Millipore). The unbound, labeled ethanolamine was centrifuged through to the bottom plate (5 min at 2000 rpm), which was preloaded with the scintillant, as described above. The plates were sealed and left at rt for 1 h before counting on a Hewlett Packard TopCount.

Sequence of FAAH (O00519 whole entry): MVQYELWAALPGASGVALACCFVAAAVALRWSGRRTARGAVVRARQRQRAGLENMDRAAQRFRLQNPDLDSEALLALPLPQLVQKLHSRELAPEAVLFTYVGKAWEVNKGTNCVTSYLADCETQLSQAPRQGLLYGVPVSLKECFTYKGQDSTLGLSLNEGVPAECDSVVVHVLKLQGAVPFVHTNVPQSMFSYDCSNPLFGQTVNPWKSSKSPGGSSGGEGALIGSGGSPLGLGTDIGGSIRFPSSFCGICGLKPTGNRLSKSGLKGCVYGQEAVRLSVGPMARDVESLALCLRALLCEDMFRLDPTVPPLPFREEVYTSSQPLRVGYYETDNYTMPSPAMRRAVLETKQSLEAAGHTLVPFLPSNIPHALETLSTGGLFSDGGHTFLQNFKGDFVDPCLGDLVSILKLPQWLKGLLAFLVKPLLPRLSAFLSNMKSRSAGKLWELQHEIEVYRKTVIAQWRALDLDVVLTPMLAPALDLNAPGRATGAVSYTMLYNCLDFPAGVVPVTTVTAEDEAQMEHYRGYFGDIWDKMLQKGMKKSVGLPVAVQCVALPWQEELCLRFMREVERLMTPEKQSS

IC50 [nM]	Structure (SMILES)
470	Cc1ccc(NC(=O)N2CCN(Cc3ccc(Br)c(Br)c3)CC2)cc1 [Example 94, 4-(3,4-Dibromo-benzyl)-piperazine-1-carboxylic acid p-tolylamide]
50	COC(=O)c1ccc(Oc2cccc(CN3CCN(C(=O)Nc4ccccc4)CC3)c2)cc1 [Example 133, 4-[3-(4-Phenylcarbamoyl-piperazin-1-ylmethyl)-phenoxy]-benzoic acid methyl ester]
630	Cc1ccc(CN2CCN(C(=O)Nc3ccccc3)CC2)cc1C [Example D, 4-(3,4-Dimethyl-benzyl)-piperazine-1-carboxylic acid phenylamide, reference compound]
200	O=C(Nc1ccccc1)N1CCN(Cc2csc3ccccc23)CC1 [Example 31, 4-Benzo[b]thiophen-3-ylmethyl-piperazine-1-carboxylic acid phenylamide]
> 10000	Cc1ccccc1NC(=O)N1CCN(Cc2ccc(Br)c(Br)c2)CC1 [Example 96, 4-(3,4-Dibromo-benzyl)-piperazine-1-carboxylic acid o-tolylamide]
29	O=C(Nc1ccccc1)N1CCN(Cc2ccc3cc[nH]c3c2)CC1 [Example 73, 4-(1H-Indol-6-ylmethyl)-piperazine-1-carboxylic acid phenylamide]
170	O=C(Nc1ccccc1)N1CCN(Cc2ccc3cc(Cl)ccc3n2)CC1 [Example 54, 4-(6-Chloro-quinolin-2-ylmethyl)-piperazine-1-carboxylic acid phenylamide]
73	O=C(Nc1ccccc1)N1CCN(Cc2cnc3ccccc3c2)CC1 [Example 23, 4-Quinolin-3-ylmethyl-piperazine-1-carboxylic acid phenylamide]
9	O=C(Nc1ccccc1)N1CCN(Cc2cccc(Oc3ccc(Cl)cc3)c2)CC1 [Example 60, 4-[3-(4-Chloro-phenoxy)-benzyl]-piperazine-1-carboxylic acid phenylamide]
4000	O=C(Nc1ccccc1Cl)N1CCC(Cc2ccccc2)CC1 [Example 115, 4-Benzyl-piperidine-1-carboxylic acid (2-chloro-phenyl)-amide]
3000	O=C(Nc1ccccc1)N1CCN(Cc2ccnc3ccccc23)CC1 [Example 50, 4-Quinolin-4-ylmethyl-piperazine-1-carboxylic acid phenylamide]
2000	O=C(Nc1ccccc1)N1CCN(Cc2cccc(OCCN3CCCCC3)c2)CC1 [Example 126, 4-[3-(2-Piperidin-1-yl-ethoxy)-benzyl]-piperazine-1-carboxylic acid phenylamide]
280	CCc1ccc(CN2CCN(C(=O)Nc3ccccc3)CC2)cc1 [Example 33, 4-(4-Ethyl-benzyl)-piperazine-1-carboxylic acid phenylamide]
19	O=C(Nc1ccccc1)N1CCN(Cc2cc3ccccc3s2)CC1 [Example 20, 4-Benzo[b]thiophen-2-ylmethyl-piperazine-1-carboxylic acid phenylamide]
83	COc1cccc(Oc2cccc(CN3CCN(C(=O)Nc4ccccc4)CC3)c2)c1 [Example 135, 4-[3-(3-Methoxy-phenoxy)-benzyl]-piperazine-1-carboxylic acid phenylamide]
1000	CS(=O)(=O)Oc1cccc(CN2CCN(C(=O)Nc3ccccc3)CC2)c1 [Example 137, Methanesulfonic acid 3-(4-phenylcarbamoyl-piperazin-1-ylmethyl)-phenyl ester]

IC50 [nM]	Structure (SMILES)
> 10000	O=C(Nc1ccccc1)N1CCN(Cc2ccccn2)CC1 [Example 46, 4-Pyridin-2-ylmethyl-piperazine-1-carboxylic acid phenylamide]
75	COc1ccc(NC(=O)N2CCN(Cc3ccc(Br)c(Br)c3)CC2)cc1 [Example 90, 4-(3,4-Dibromo-benzyl)-piperazine-1-carboxylic acid (4-methoxy-phenyl)-amide]
24	Cc1cccc2cc(CN3CCN(C(=O)Nc4ccccc4)CC3)c(Cl)nc12 [Example 75, 4-(2-Chloro-8-methyl-quinolin-3-ylmethyl)-piperazine-1-carboxylic acid phenylamide]
1000	O=C(Nc1ccccc1)N1CCN(Cc2ccc(OC3CCCCC3)cc2)CC1 [Example 119, 4-(4-Cyclohexyloxy-benzyl)-piperazine-1-carboxylic acid phenylamide]
4000	O=C(Nc1ccccc1)N1CCN(Cc2ccc3[nH]ccc3c2)CC1 [Example 43, 4-(1H-Indol-5-ylmethyl)-piperazine-1-carboxylic acid phenylamide]
> 10000	O=C(Nc1ccccc1)N1CCN(Cc2ccncc2)CC1 [Example 45, 4-Pyridin-4-ylmethyl-piperazine-1-carboxylic acid phenylamide]
3500	CC(C)Oc1ccc(CN2CCN(C(=O)Nc3ccccc3)CC2)cc1 [Example 48, 4-(4-Isopropoxy-benzyl)-piperazine-1-carboxylic acid phenylamide]
9000	O=C(Nc1ccccc1)N1CCN(Cc2cc3ccccc3nc2Cl)CC1 [Example 56, 4-(2-Chloro-quinolin-3-ylmethyl)-piperazine-1-carboxylic acid phenylamide]
230	Cn1ccc2cc(CN3CCN(C(=O)Nc4ccccc4)CC3)ccc21 [Example 53, 4-(1-Methyl-1H-indol-5-ylmethyl)-piperazine-1-carboxylic acid phenylamide]
1500	CCCOc1ccc(CN2CCN(C(=O)Nc3ccccc3)CC2)cc1 [Example 123, 4-(4-Propoxy-benzyl)-piperazine-1-carboxylic acid phenylamide]
2500	O=C(Nc1ccccc1)N1CCN(Cc2ccccc2Br)CC1 [Example 84, 4-(2-Bromo-benzyl)-piperazine-1-carboxylic acid phenylamide]
18	Cc1ccc(Oc2cccc(CN3CCN(C(=O)Nc4ccccc4)CC3)c2)cc1 [Example 62, 4-(3-p-Tolyloxy-benzyl)-piperazine-1-carboxylic acid phenylamide]
> 10000	O=C(Nc1ccccc1)N1CCN(Cc2cccnc2)CC1 [Example 47, 4-Pyridin-3-ylmethyl-piperazine-1-carboxylic acid phenylamide]
10000	CN(C)CCOc1cccc(CN2CCN(C(=O)Nc3ccccc3)CC2)c1 [Example 125, 4-[3-(2-Dimethylamino-ethoxy)-benzyl]-piperazine-1-carboxylic acid phenylamide]
410	O=C(Nc1ccccc1)N1CCN(Cc2cccc(-c3ccccc3)c2)CC1 [Example 70, 4-Biphenyl-3-ylmethyl-piperazine-1-carboxylic acid phenylamide]
2000	CN(C)CCCOc1cccc(CN2CCN(C(=O)Nc3ccccc3)CC2)c1 [Example 127, 4-[3-(3-Dimethylamino-propoxy)-benzyl]-piperazine-1-carboxylic acid phenylamide]

Structure (SMILES)	IC50 [nM]
O=C(Nc1ccccc1)N1CCN(Cc2cccc(Oc3cc4ccccc4c4ccccc34)c2)CC1 [Example 132, 4-[3-(Phenanthren-9-yloxy)-benzyl]-piperazine-1-carboxylic acid phenylamide]	3000
CC(C)COc1ccc(CN2CCN(C(=O)Nc3ccccc3)CC2)cc1 [Example 124, 4-(4-Isobutoxy-benzyl)-piperazine-1-carboxylic acid phenylamide]	1800
